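Compound exposure: 48 hours, 5 concentrations, 96-well plates. GI50 marks 50% less growth.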 Calls of active or inactive are those of the source. Cut-off read from the data, not from the text of the source: active = GI50 up to about 1.1 µM and inactive = higher.
What was measured:
Assay in all cases: inhibition of tumour cell growth, NCI panel, 48 h
HOP-92 = tested on: HOP-92
U-251 = tested on: U-251
SNB-75 = tested on: SNB-75
Malme-3M = tested on: Malme-3M
NCI/ADR-RES = tested on: NCI/ADR-RES
SK-MEL-5 = tested on: SK-MEL-5
OVCAR-4 = tested on: OVCAR-4
T47D = tested on: T47D
SK-MEL-2 = tested on: SK-MEL-2
OVCAR-8 = tested on: OVCAR-8
CCRF-CEM = tested on: CCRF-CEM
A498 = tested on: A498
HCT-15 = tested on: HCT-15
NCI-H522 = tested on: NCI-H522
SK-OV-3 = tested on: SK-OV-3
NCI-H23 = tested on: NCI-H23
HCT-116 = tested on: HCT-116
CAKI-1 = tested on: CAKI-1
SF-539 = tested on: SF-539
BT-549 = tested on: BT-549

Row | SMILES | GI50 (HOP-92) | GI50 (U-251) | GI50 (SNB-75) | GI50 (Malme-3M) | GI50 (NCI/ADR-RES) | GI50 (SK-MEL-5) | GI50 (OVCAR-4) | GI50 (T47D) | GI50 (SK-MEL-2) | GI50 (OVCAR-8) | GI50 (CCRF-CEM) | GI50 (A498) | GI50 (HCT-15) [µM] | GI50 (NCI-H522) | GI50 (SK-OV-3) | GI50 (NCI-H23) | GI50 (HCT-116) | GI50 (CAKI-1) | GI50 (SF-539) | GI50 (BT-549)
1 | CC#CCCN(CC#N)Cc1ccccc1 | > 100 µM (inactive) | > 100 µM (inactive) | > 100 µM (inactive) | > 100 µM (inactive) | > 100 µM (inactive) | > 100 µM (inactive) | > 100 µM (inactive) | > 100 µM (inactive) | > 100 µM (inactive) | > 100 µM (inactive) | > 100 µM (inactive) | 20.4 µM (inactive) | > 100 | > 100 µM (inactive) | > 100 µM (inactive) | > 100 µM (inactive) | > 100 µM (inactive) | > 100 µM (inactive) |  | 
2 | CCOC(=O)c1ccc(Nc2c3c(nc4ccccc24)CCCC3)cc1 | 18.1 µM (inactive) | 22.9 µM (inactive) | 6.73 µM (inactive) |  | > 30.3 µM (inactive) | > 42.5 µM (inactive) | 46.7 µM (inactive) | 8.51 µM (inactive) | > 86.9 µM (inactive) | 44.7 µM (inactive) | 14.2 µM (inactive) | 15.3 µM (inactive) | 7.13 | 3.62 µM (inactive) | > 66.2 µM (inactive) | > 47.9 µM (inactive) | > 34.3 µM (inactive) | 54.5 µM (inactive) | 48.9 µM (inactive) | 
3 | NC(Cc1ccc(O)cn1)C(=O)NC(C(=O)O)c1ccccc1 (stereo unspecified) | > 100 µM (inactive) | > 100 µM (inactive) | > 100 µM (inactive) | > 100 µM (inactive) | > 100 µM (inactive) | > 100 µM (inactive) | > 100 µM (inactive) |  |  | > 100 µM (inactive) | > 100 µM (inactive) | > 100 µM (inactive) | > 100 | > 100 µM (inactive) |  | > 100 µM (inactive) | > 100 µM (inactive) | > 100 µM (inactive) | > 100 µM (inactive) | > 100 µM (inactive)
4 | CNC(=O)N1CN(c2ccccc2)C2(CCN(CCCC(=O)c3ccc(F)cc3)CC2)C1=O |  | 21.5 µM (inactive) | 29.3 µM (inactive) | 20 µM (inactive) | 17.6 µM (inactive) | 11.8 µM (inactive) |  | 4.98 µM (inactive) |  | 31.5 µM (inactive) | 13.9 µM (inactive) |  | 15.5 | 24.9 µM (inactive) | 31.8 µM (inactive) | 23.4 µM (inactive) | 7.59 µM (inactive) | 24.8 µM (inactive) | 13.9 µM (inactive) | 
5 | COC(=O)CCC(=O)N1CC1C (stereo unspecified) | > 100 µM (inactive) | > 100 µM (inactive) | > 100 µM (inactive) | > 100 µM (inactive) |  | > 100 µM (inactive) | > 100 µM (inactive) |  | > 100 µM (inactive) | > 100 µM (inactive) | > 100 µM (inactive) | > 100 µM (inactive) | > 100 | > 100 µM (inactive) | > 100 µM (inactive) | > 100 µM (inactive) | > 100 µM (inactive) | > 100 µM (inactive) | > 100 µM (inactive) | 
6 | CCOc1ccc(NC(=O)C(=O)NO)cc1 | > 100 µM (inactive) | > 100 µM (inactive) | > 100 µM (inactive) | > 100 µM (inactive) |  | > 100 µM (inactive) | > 100 µM (inactive) |  | > 100 µM (inactive) | > 100 µM (inactive) | > 100 µM (inactive) | > 100 µM (inactive) | > 100 | > 100 µM (inactive) | > 100 µM (inactive) | > 100 µM (inactive) | > 100 µM (inactive) | > 100 µM (inactive) | > 100 µM (inactive) | 
7 | CC(CO)[C@H]1OC(=O)C=C2[C@@]13O[C@@H]3[C@H]1OC(=O)[C@@]3(C)[C@H]4O[C@H]4C[C@@]2(C)[C@@H]13 (stereo partly specified) | 2.71 µM (inactive) | 2.15 µM (inactive) | 0.738 µM (active) | 2.13 µM (inactive) |  | 0.8 µM (active) | 1.15 µM (inactive) | 2.92 µM (inactive) | 2.07 µM (inactive) | 2.25 µM (inactive) | 0.5 µM (active) | 4.1 µM (inactive) | 0.914 | 1.46 µM (inactive) | 3.02 µM (inactive) | 2.43 µM (inactive) | 1.07 µM (active) | 1.84 µM (inactive) | 1.83 µM (inactive) | 2.11 µM (inactive)

Reference: ChEMBL document CHEMBL1201862, “PubChem BioAssay data set” (2004)
